Test results from patent US12610948B2, “Choline chloride adjuvant for fatty acid based biopesticide” (Stratacor, Inc., priority 2020, dated 2026).

How the values were obtained:
[1] = test system: stable flies (Stomoxys calcitrans); test: Laboratory Petri dish filter paper incapacitation test, stable flies; assay type: in vivo; conditions: 1 ml on 9 cm filter paper in Petri dish
Source text: (§1) Mixed sex stable flies (Stomoxys calcitrans) were obtained as pupae from a colony at the University of Nebraska West Central Research and Extension Center, North Platte, Nebraska. Mixed sex horn flies (Haematobia irritans), sensitive and knockdown resistant (Kdr), were obtained as pupae from a colony at The Center for Animal Health and Food Safety, New Mexico State University, Las Cruces, New Mexico. Adult horn and stable flies were allowed to emerge in 1 cubic foot cages at approximately 80 degrees Fahrenheit and were maintained on citrated whole blood (Quad Five, Rygate, Montana). Mixed sex house flies (Musca domestica) were obtained as pupae from Carolina Biological, Charlotte, North Carolina Adults were allowed to emerge in 1 cubic foot cages at approximately 80 degrees Fahrenheit and were maintained on water and sugar cubes. Mixed sex German cockroaches (Blattella germanica) were obtained as adults from Carolina Biological. Prior to use, roaches were kept with the supplied food source in paper towels contained in 1 cubic foot cages. Flies were used 4-6 days post emergence.
(§2) An aqueous emulsion of the octanoic/decanoic acid mix (C8C10) was prepared by addition to an aqueous solution of the sodium salts of the fatty acids, prepared by mixing equal molar amounts of sodium hydroxide and fatty acid.

[2] = test system: Sensitive Horn Fly (Haematobia irritans); test: Laboratory Petri dish incapacitation test, sensitive horn flies; assay type: in vivo; conditions: C8C10 organic aqueous emulsion, sensitive strain
Source text: as §1, §2

[3] = test system: Knockdown Resistant (Kdr) Horn Fly (Haematobia irritans); test: Laboratory Petri dish incapacitation test, knockdown resistant (Kdr) horn flies; assay type: in vivo; conditions: C8C10 organic aqueous emulsion, Kdr strain
Source text: as §1, §2

[4] = test system: house flies (Musca domestica); test: Laboratory Petri dish incapacitation test, house flies; assay type: in vivo; conditions: aqueous emulsion, N = 3-4
Source text: as §1, §2

[5] = test system: German cockroaches (Blattella germanica); test: Laboratory Petri dish incapacitation test, German cockroaches; assay type: in vivo; conditions: aqueous emulsion, 6 roaches per dish
Source text: as §1, §2

insect = conditions: 1% choline chloride in distilled water
Source text: However, several factors (e.g., volatility, skin penetration, odor, irritation of the skin, eyes, and respiratory passages, leaf wilt, incapacitation reversibility, etc.) inherent to fatty acids may limit their practical use for certain applications as a biopesticide, especially when used at a high dosage.

acetylcholine receptors = conditions: scale where acetylcholine is 100; Keyl et al., 1957; cited from earlier work
[6] = assay type: in vitro ADME
Source text: The C8910 fatty acids are volatile (Reifenrath, 2015b), and 24-61% of the applied dose evaporated exponentially from clay formulation applied to skin. Skin penetration will also limit duration for dermal treatments (e.g., about 50-75% of the applied dose of octanoic and decanoic acid penetrated cattle skin from mineral oil). To provide finer control of these modes of loss, the development of longer lasting controlled-release formulations (clay nanotubes, disintegrating granules, and microcapsules) for use as premises spray and direct skin application for protecting cattle against biting flies and ticks was investigated (Reifenrath, 2015c), with none of the carriers showing an extended duration. Since that time, however, it has been shown that an aqueous dilution (to 1% C8910) of an emulsifiable concentrate could achieve a similar duration of effectiveness (2-3 days after a single treatment) as the 15% oil formulation. […] The limited duration of such a formulation can be overcome by more frequent application (e.g. walk-through sprayers).

## C[N+](C)(C)CCO.[Cl-] [Choline Chloride, 1.0%, Choline chloride]
[1]
  % Incapacitation at 24 h (Mean +/− S.D., N = 3): 4 +/− 3%
[2]
  % Incapacitation at 24 h (Mean +/− S.D., N = 3), Sensitive: 0 +/− 0%
[3]
  % Incapacitation at 24 h (Mean +/− S.D., N = 3), Kdr: 2 +/− 4%
[4]
  % Incapacitation at 24 h (Mean +/− S.D.): 0 +/− 0%
[5]
  % Incapacitation at 24 h (Mean +/− S.D., N = 3): 0 +/− 0%
[5]; listed as choline chloride
  % Incapacitation at 24 h (Mean +/− S.D., N = 3): no effect
insect
  insecticidal effect: little or no insecticidal effect

## CCCC(=O)OCC[N+](C)(C)C [Formulation C4]
Acetylcholine receptors
  relative potency: 100

## CCCCC(=O)OCC[N+](C)(C)C [Formulation C5]
Acetylcholine receptors
  relative potency: 54

## CCCCCC(=O)OCC[N+](C)(C)C [Formulation C6]
Acetylcholine receptors
  relative potency: 20

## CCCCCCCCCC(=O)O [decanoic acid]
[6]
  applied dose penetrated cattle skin: 50-75%

## CCCCCCCC(=O)O [octanoic acid]
[6]
  applied dose penetrated cattle skin: 50-75%
